Results from ChEMBL document CHEMBL5046215, “Heparan Sulfate Mimetics Differentially Affect Homologous Chemokines and Attenuate Cancer Development” (J Med Chem, 2021).
Activity calls are given as the source filed them. The calls are words filed in the database; no cut-off is given here.

Key:
[1] = molecular target: C-C motif chemokine 7 (Homo sapiens) (UniProt P80098); experiment: Binding affinity to human CCL7 at 100 uM by glycan microarray analysis
[2] = molecular target: T1, C-C motif chemokine 5 (Homo sapiens) (UniProt P13501); experiment: Binding affinity to human CCL5 at 100 uM by glycan microarray analysis
T1 sequence (whole entry): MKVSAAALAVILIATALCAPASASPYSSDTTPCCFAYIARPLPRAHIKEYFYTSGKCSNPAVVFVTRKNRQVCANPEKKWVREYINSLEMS

[3] = species: Homo sapiens; experiment: Binding affinity to human CCL21 at 100 uM by glycan microarray analysis
[4] = species: Homo sapiens; experiment: Binding affinity to human CCL28 at 100 uM by glycan microarray analysis
[5] = molecular target: T2, Stromal cell-derived factor 1 (Homo sapiens, UniProt P48061); experiment: Binding affinity to human CXCL12 at 100 uM by glycan microarray analysis
T2 sequence (P48061 whole entry): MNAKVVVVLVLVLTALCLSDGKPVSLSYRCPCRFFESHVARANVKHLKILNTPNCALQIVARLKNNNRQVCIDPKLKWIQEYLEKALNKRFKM

[6] = molecular target: T3, C-C motif chemokine 2 (Homo sapiens, UniProt P13500); experiment: Binding affinity to human CCL2 at 100 uM by glycan microarray analysis
Target sequence in this assay (P13500 24-99 limits assumed): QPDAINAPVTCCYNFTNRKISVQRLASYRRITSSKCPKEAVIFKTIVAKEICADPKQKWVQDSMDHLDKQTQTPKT

[7] = molecular target: C-X-C motif chemokine 10 (Homo sapiens) (UniProt P02778); experiment: Binding affinity to human CXCL10 at 100 uM by glycan microarray analysis
[8] = molecular target: Interleukin-8 (Homo sapiens) (UniProt P10145); experiment: Binding affinity to human CXCL8 at 100 uM by glycan microarray analysis
[9] = species: Homo sapiens; experiment: Binding affinity to human CCL13 at 100 uM by glycan microarray analysis
[10] = molecular target: T4, Interleukin-8 (Homo sapiens, UniProt P10145); experiment: Binding affinity to human CXCL8 assessed as dissociation constant incubated for 3 mins by surface plasmon resonance analysis
T4 sequence (P10145 whole entry): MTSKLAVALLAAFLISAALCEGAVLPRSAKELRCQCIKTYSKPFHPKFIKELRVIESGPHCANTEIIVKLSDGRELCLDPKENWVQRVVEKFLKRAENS

[11] = test system: MDA-MB-231; experiment: Anti-proliferative activity against human MDA-MB-231 cells assessed as reduction in cell proliferation at 10 to 50 ug/ml compound pretreated with CCL2 followed by incubation with cells and measured after 48 hrs by Sulforhodamine B staining based WST assay; type: functional; settings: dose 10-50 µg/ml, at 10 to 50 µg/mL
[12] = test system: MCF7; experiment: Antimigratory activity against human MCF7 cells assessed as reduction in cell migration at 10 to 50 ug/ml measured after 5 hrs in presence of CCL2 by wound healing assay relative to control; type: functional; settings: dose 10-50 µg/ml
[13] = molecular target: T5, C-X-C motif chemokine 10 (Homo sapiens, UniProt P02778); experiment: Binding affinity to human CXCL10 assessed as dissociation constant incubated for 3 mins by surface plasmon resonance analysis
T5 sequence (P02778 whole entry): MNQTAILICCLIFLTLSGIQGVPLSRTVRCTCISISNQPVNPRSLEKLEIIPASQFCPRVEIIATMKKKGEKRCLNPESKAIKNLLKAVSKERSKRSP

[14] = test system: MCF7; experiment: Antiinvasive activity against human MCF7 cells assessed as inhibition of cell invasion at 50 ug/ml measured after 24 hrs in presence of CCL2 by crystal violet staining based Boyden chamber analysis; type: functional; settings: dose 50.0 µg/ml
[15] = test system: MCF7; experiment: Decrease in MAPK expression in human MCF7 cells at 50 ug/ml measured after 30 mins in presence of CCL2 by Western blot analysis; type: functional, cell-based; settings: dose 50.0 µg/ml
[16] = molecular target: T3, C-C motif chemokine 2; experiment: Binding affinity to human CCL2 assessed as on-rate constant incubated for 3 mins by surface plasmon resonance analysis
Target sequence in this assay (P13500 24-99 limits assumed): as the sequence (P13500 24-99 limits assumed) above

[17] = molecular target: Interleukin-8 (Homo sapiens) (UniProt P10145); experiment: Binding affinity to human CXCL8 assessed as on-rate constant incubated for 3 mins by surface plasmon resonance analysis
[18] = molecular target: T2, Stromal cell-derived factor 1; experiment: Binding affinity to human CXCL12 assessed as dissociation constant incubated for 3 mins by surface plasmon resonance analysis
[19] = test system: MCF7; experiment: Anti-proliferative activity against human MCF7 cells assessed as reduction in cell proliferation at 10 to 50 ug/ml compound pretreated with CCL2 followed by incubation with cells and measured after 48 hrs by Sulforhodamine B staining based WST assay; type: functional; settings: dose 10-50 µg/ml, at 10 to 50 µg/mL
[20] = molecular target: T6, C-C motif chemokine 5 (Homo sapiens, UniProt P13501); experiment: Binding affinity to human CCL5 assessed as dissociation constant incubated for 3 mins by surface plasmon resonance analysis
T6 sequence (P13501 whole entry): T1 sequence (whole entry)

[21] = molecular target: Interleukin-8 (Homo sapiens) (UniProt P10145); experiment: Binding affinity to human CXCL8 assessed as off-rate constant incubated for 3 mins by surface plasmon resonance analysis
[22] = molecular target: T1, C-C motif chemokine 5 (Homo sapiens); experiment: Binding affinity to human CCL5 assessed as off-rate constant incubated for 3 mins by surface plasmon resonance analysis
[23] = molecular target: T1, C-C motif chemokine 5 (Homo sapiens); experiment: Binding affinity to human CCL5 assessed as on-rate constant incubated for 3 mins by surface plasmon resonance analysis
[24] = molecular target: T3, C-C motif chemokine 2; experiment: Binding affinity to human CCL2 assessed as dissociation constant incubated for 3 mins by surface plasmon resonance analysis
Target sequence in this assay (P13500 whole entry): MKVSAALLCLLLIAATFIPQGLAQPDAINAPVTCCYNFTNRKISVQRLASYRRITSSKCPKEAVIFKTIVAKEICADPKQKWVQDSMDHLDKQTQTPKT

[25] = molecular target: T3, C-C motif chemokine 2; experiment: Binding affinity to human CCL2 assessed as off-rate constant incubated for 3 mins by surface plasmon resonance analysis
Target sequence in this assay (P13500 24-99 limits assumed): as the sequence (P13500 24-99 limits assumed) above

[26] = test system: MCF7; experiment: Induction of cell cycle arrest in human MCF7 cells assessed as accumulation of cells at G2/M phase incubated for 72 hrs in presence of CCL2 by PI staining based flow cytometric analysis; type: functional

C-C motif chemokine 7 (Homo sapiens), sequence (P80098 whole entry): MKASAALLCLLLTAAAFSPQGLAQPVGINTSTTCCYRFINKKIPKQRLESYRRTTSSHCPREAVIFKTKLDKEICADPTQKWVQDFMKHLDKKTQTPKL

Activity [1] [%]	Activity [2] [%]	Activity [3] [%]	Activity [4] [%]	Activity [5] [%]	Activity [6] [%]	Activity [7] [%]	Activity [8] [%]	Activity [9] [%]	Structure (SMILES)	other results
80	91	50	72	91	88	87	96	70	NCCOCCO[C@@H]1O[C@@H](C(=O)O)[C@@H](O[C@@H]2O[C@@H](C(=O)O)[C@@H](O[C@@H]3O[C@@H](C(=O)O)[C@@H](O[C@@H]4O[C@@H](C(=O)O)[C@@H](OS(=O)(=O)O)[C@H](O)[C@H]4OS(=O)(=O)O)[C@H](O)[C@H]3OS(=O)(=O)O)[C@H](O)[C@H]2OS(=O)(=O)O)[C@H](O)[C@H]1OS(=O)(=O)O	Kd [10]: 9.34 µM; inhibition (INH) [11]: 40%; inhibition (INH) ([12]; at 10 to 50 µg/mL): 34%; Kd [13]: 19.5 µM; Activity [14]: Active; inhibition [15]: Active; K [16]: 1.26 10^5/M/s; K [17]: 3.16 10^5/M/s; Kd [18]: 18.8 µM; inhibition (INH) [19]: 40%; Kd [20]: 5.72 µM; K [21]: 2.96 10^-1/s; K [22]: 2.4 10^-1/s; K [23]: 4.2 10^4/M/s; Kd [24]: 1.67 µM; K [25]: 2.1 10^-1/s; Activity [26]: 19%
55	38	71	84	79	25	67	73	94	NCCOCCO[C@@H]1O[C@@H](C(=O)O)[C@@H](O[C@@H]2O[C@@H](C(=O)O)[C@@H](OS(=O)(=O)O)[C@H](O)[C@H]2O)[C@H](O)[C@H]1O	–
87	86	86	76	98	69	96	83	88	NCCOCCO[C@@H]1O[C@@H](C(=O)O)[C@@H](O[C@@H]2O[C@@H](C(=O)O)[C@@H](OS(=O)(=O)O)[C@H](O)[C@H]2OS(=O)(=O)O)[C@H](O)[C@H]1OS(=O)(=O)O	–
94	75	79	51	75	66	82	71	53	NCCOCCO[C@@H]1O[C@@H](C(=O)O)[C@@H](OS(=O)(=O)O)[C@H](O)[C@H]1OS(=O)(=O)O	–
79	80	80	84	82	67	74	95	67	NCCOCCO[C@@H]1O[C@@H](C(=O)O)[C@@H](O[C@@H]2O[C@@H](C(=O)O)[C@@H](O[C@@H]3O[C@@H](C(=O)O)[C@@H](OS(=O)(=O)O)[C@H](O)[C@H]3OS(=O)(=O)O)[C@H](O)[C@H]2OS(=O)(=O)O)[C@H](O)[C@H]1OS(=O)(=O)O	–

Continued, compound first:

Structure (SMILES)	Activity [1] [%]	Activity [2] [%]	Activity [3] [%]	Activity [4] [%]	Activity [5] [%]	Activity [6] [%]	Activity [7] [%]	Activity [8] [%]	Activity [9] [%]	other results
NCCOCCO[C@@H]1O[C@@H](C(=O)O)[C@@H](OS(=O)(=O)O)[C@H](O)[C@H]1O	58	15	62	80	64	23	57	62	81	–
NCCOCCO[C@@H]1O[C@@H](C(=O)O)[C@@H](O[C@@H]2O[C@@H](C(=O)O)[C@@H](O[C@@H]3O[C@@H](C(=O)O)[C@@H](O)[C@H](O)[C@H]3O)[C@H](O)[C@H]2O)[C@H](O)[C@H]1O	17	1	46	72	38	0	24	5	69	–
NCCOCCO[C@@H]1O[C@@H](C(=O)O)[C@@H](O[C@@H]2O[C@@H](C(=O)O)[C@@H](O)[C@H](O)[C@H]2O)[C@H](O)[C@H]1O	30	2	63	58	66	2	45	12	82	–
NCCOCCO[C@@H]1O[C@@H](C(=O)O)[C@@H](O[C@@H]2O[C@@H](C(=O)O)[C@@H](O[C@@H]3O[C@@H](C(=O)O)[C@@H](O[C@@H]4O[C@@H](C(=O)O)[C@@H](OS(=O)(=O)O)[C@H](O)[C@H]4O)[C@H](O)[C@H]3O)[C@H](O)[C@H]2O)[C@H](O)[C@H]1O	12	10	60	54	45	0	23	13	72	Activity [12]: inactive
NCCOCCO[C@@H]1O[C@@H](C(=O)O)[C@@H](O[C@@H]2O[C@@H](C(=O)O)[C@@H](O[C@@H]3O[C@@H](C(=O)O)[C@@H](OS(=O)(=O)O)[C@H](O)[C@H]3O)[C@H](O)[C@H]2O)[C@H](O)[C@H]1O	75	30	83	80	92	36	78	63	86	–
NCCOCCO[C@@H]1O[C@@H](C(=O)O)[C@@H](O[C@@H]2O[C@@H](C(=O)O)[C@@H](O[C@@H]3O[C@@H](C(=O)O)[C@@H](O[C@@H]4O[C@@H](C(=O)O)[C@@H](O)[C@H](O)[C@H]4O)[C@H](O)[C@H]3O)[C@H](O)[C@H]2O)[C@H](O)[C@H]1O	33	2	48	56	56	2	44	12	67	–
NCCOCCO[C@@H]1O[C@@H](C(=O)O)[C@@H](O)[C@H](O)[C@H]1O	30	2	52	46	62	4	47	17	74	–
